In ChEMBL document CHEMBL1201862, “PubChem BioAssay data set” (2004) one finds IC50, EC50 and AC50 data, which are given here for eight compounds.

Assay [1] addresses T1, Tyrosine-protein phosphatase non-receptor type 7 (Homo sapiens, UniProt P35236).
T1 sequence (P35236 whole entry): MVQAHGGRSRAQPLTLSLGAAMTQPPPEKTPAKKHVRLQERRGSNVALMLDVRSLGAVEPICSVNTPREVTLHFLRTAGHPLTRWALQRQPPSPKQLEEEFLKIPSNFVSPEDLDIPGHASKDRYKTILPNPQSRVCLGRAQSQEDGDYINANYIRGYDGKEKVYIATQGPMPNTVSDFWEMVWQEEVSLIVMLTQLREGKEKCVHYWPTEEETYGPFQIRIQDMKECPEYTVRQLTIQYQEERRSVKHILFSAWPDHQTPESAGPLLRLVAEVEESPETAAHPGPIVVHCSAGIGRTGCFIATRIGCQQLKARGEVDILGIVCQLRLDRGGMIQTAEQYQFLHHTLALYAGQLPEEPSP
The assay is described as follows: inhibitors of human HePTP phosphatase, […], biochemical, absorbance, leukemia target (AID 521). It counts as functional.

In assay [2] the target is Melanin-concentrating hormone receptor 1 (Homo sapiens, UniProt Q99705). Kind of assay: Fluorescence-based counterscreen for antagonists of the G-protein coupled receptor 7 (GPR7): cell-based high throughput dose response assay to identify antagonists of the melanin-concentrating hormone receptor 1 (MCHR1). It counts as functional.
Melanin-concentrating hormone receptor 1, sequence (Q99705 whole entry): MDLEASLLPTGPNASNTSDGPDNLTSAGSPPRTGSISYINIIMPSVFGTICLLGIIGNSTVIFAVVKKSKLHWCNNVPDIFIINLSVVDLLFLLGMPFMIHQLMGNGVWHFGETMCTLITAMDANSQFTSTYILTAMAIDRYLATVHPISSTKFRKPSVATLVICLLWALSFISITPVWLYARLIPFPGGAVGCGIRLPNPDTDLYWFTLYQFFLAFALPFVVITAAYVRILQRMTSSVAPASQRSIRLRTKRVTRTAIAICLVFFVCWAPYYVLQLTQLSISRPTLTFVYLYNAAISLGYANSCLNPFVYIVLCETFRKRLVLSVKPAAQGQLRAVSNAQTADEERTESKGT
In assay [3] the target is Neuropeptides B/W receptor type 1 (Homo sapiens, UniProt P48145). The assay is described as follows: Fluorescence-based dose response cell-based high throughput screening assay to identify antagonists of the G-protein coupled receptor 7 (GPR7). [Related pubchem assays: 1952 (Screening assay (GPR7 antagonists).), 1880 (Summary AID.)]. Type of assay: functional.
Neuropeptides B/W receptor type 1, sequence (P48145 whole entry): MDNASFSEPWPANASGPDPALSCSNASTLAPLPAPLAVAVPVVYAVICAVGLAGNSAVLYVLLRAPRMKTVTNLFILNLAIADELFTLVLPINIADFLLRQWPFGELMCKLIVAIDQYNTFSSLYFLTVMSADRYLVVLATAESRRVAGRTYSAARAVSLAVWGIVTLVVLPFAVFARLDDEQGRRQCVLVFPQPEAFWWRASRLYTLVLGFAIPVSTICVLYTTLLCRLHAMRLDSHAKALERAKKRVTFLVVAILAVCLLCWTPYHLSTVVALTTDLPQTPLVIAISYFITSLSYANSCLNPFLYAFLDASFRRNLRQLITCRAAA
Assay [4] in a line: Luminescent dose response cell-based high throughput screening assay for inhibitors of the Janus kinase 2 mutant JAK2V617F. [Related pubchem assays: 1446 (Primary screen.), 1521 (Confirmation assay.), 1486 (Counter screen.)]. It counts as functional.
For a further assay, the target named is Nonstructural protein 1 (Influenza A virus, UniProt Q194T2). Type of assay: functional, Influenza A virus (A/California/07/2009(H1N1)).
Nonstructural protein 1, sequence (Q194T2 whole entry): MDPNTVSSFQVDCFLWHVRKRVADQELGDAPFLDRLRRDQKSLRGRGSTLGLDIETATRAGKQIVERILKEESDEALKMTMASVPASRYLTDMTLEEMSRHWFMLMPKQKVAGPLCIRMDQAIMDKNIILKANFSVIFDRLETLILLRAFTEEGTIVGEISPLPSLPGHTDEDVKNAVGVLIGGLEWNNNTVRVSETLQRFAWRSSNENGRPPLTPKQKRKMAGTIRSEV
In assay [5] the target is Mannose-6-phosphate isomerase (Homo sapiens, UniProt P34949). The assay is described as follows: human PMI inhibitors, high substrate, primary screen, biochemical, fluorescence intensity, high mannose 6-phosphate (AID 1220).
Mannose-6-phosphate isomerase, sequence (P34949 whole entry): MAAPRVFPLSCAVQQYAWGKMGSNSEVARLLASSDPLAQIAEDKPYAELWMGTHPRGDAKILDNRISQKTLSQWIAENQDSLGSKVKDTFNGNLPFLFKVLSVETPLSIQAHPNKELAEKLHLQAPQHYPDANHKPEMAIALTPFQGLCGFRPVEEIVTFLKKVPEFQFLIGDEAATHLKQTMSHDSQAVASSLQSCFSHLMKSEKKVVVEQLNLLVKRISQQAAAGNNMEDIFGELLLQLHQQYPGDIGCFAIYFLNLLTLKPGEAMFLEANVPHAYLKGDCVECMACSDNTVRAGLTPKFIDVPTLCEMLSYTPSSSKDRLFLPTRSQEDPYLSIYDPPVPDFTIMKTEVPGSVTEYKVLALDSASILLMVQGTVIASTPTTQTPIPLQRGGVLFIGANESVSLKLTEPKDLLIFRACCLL
The target of assay [6] is Sphingosine 1-phosphate receptor 2 (Homo sapiens, UniProt O95136). Kind of assay: Dose Response Cell Based Assay for Agonists of the S1P2 Receptor. [Related pubchem assays: 729, 736, 843 ]. Type of assay: functional.
Sphingosine 1-phosphate receptor 2, sequence (O95136 whole entry): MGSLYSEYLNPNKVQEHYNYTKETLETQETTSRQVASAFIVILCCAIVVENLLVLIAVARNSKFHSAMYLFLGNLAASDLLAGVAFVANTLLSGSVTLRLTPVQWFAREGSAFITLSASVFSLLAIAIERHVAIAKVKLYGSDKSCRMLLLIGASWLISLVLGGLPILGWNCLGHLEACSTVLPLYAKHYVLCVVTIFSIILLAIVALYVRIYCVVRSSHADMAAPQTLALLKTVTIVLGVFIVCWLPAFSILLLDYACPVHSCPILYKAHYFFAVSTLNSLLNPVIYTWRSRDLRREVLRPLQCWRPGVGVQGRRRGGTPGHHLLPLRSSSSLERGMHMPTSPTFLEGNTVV
For assay [7], the target named is Luciferin 4-monooxygenase (Photinus pyralis, UniProt P08659). The assay is described as follows: firefly luciferase enzyme inhibitors, dose response, biochemical, luminescence (AID 1891).
Luciferin 4-monooxygenase, sequence (P08659 whole entry): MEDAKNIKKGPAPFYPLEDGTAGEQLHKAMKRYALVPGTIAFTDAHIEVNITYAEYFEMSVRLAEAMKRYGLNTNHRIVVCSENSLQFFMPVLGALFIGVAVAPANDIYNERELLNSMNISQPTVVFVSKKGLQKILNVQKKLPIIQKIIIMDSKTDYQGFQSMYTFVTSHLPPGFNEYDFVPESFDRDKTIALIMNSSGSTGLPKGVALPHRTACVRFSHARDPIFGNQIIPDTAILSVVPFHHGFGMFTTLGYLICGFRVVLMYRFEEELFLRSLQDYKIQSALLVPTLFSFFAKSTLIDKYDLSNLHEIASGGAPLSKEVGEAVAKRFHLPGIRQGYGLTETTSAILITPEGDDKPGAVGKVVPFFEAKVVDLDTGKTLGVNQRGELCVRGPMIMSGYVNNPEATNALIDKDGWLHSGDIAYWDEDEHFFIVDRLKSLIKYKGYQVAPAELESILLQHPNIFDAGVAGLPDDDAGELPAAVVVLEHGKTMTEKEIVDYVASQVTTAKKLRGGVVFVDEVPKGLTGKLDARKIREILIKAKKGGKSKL
Assay [8] in a line: Luminescence Cell-Based Dose Confirmation HTS to Identify Inhibitors of Platelet Dense Granule Release. [Related pubchem assays: 1663 (Primary HTS), 1678 (Summary of Project)]. Type of assay: functional.
A short description of assay [9]: cells.
The target in assay [10] is T2, Oxysterols receptor LXR-beta (Homo sapiens, UniProt P55055).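 Also: Cell-based luminescence dose-response assay of agonist activity at LXR, run as a confirmatory counterscreen to a daf-12 agonist screen; HEK293 cells with Gal4-LXR fusion and GAL4-driven luciferase reporter; agonist potency from rising luciferase signal of a Gal4-LXR reporter.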
T2 sequence (P55055 whole entry): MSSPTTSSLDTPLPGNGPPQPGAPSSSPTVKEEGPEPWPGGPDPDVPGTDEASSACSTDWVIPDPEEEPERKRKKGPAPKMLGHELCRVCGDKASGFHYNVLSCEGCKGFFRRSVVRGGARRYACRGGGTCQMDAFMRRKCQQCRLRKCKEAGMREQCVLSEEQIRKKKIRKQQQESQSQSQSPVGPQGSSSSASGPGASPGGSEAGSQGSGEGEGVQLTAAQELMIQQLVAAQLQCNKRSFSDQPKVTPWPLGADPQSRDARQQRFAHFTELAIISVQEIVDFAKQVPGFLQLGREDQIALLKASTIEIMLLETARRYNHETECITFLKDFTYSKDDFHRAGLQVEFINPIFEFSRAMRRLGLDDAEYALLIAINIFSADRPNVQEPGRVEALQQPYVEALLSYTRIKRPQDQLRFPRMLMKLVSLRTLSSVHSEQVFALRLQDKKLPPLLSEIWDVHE
It counts as functional, cell-based.

The target in assay [11] is T3, Short transient receptor potential channel 4 (Mus musculus, UniProt Q9QUQ5).
T3 sequence (Q9QUQ5 whole entry): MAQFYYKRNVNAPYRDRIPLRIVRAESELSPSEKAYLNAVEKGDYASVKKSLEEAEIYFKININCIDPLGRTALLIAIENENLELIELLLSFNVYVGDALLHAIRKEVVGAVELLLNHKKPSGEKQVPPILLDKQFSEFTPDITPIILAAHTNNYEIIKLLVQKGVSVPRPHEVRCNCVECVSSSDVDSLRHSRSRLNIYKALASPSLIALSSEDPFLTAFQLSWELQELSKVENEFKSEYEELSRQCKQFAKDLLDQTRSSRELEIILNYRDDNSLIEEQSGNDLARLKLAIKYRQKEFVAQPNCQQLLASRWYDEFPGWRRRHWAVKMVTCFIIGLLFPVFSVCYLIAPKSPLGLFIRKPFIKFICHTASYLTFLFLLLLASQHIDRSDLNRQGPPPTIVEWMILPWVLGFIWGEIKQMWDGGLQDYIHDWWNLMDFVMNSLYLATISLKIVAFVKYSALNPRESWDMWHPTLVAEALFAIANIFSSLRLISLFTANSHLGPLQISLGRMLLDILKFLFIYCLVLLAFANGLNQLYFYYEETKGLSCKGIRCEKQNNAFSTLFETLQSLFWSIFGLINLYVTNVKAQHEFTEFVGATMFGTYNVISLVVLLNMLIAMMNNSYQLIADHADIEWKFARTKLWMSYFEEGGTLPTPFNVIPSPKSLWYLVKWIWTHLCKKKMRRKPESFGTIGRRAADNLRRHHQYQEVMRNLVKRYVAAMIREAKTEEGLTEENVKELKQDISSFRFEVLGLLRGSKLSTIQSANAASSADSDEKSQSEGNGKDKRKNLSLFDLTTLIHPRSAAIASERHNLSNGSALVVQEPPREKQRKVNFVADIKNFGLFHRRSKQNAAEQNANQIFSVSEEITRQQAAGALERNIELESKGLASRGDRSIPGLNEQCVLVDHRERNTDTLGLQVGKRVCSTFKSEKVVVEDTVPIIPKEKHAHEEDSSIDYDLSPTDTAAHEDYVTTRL
Kind of assay: mouse TRPC4 channel inhibitors, dose response, cell-based, HEK293 TRPC4/mu-opioid, Fluo-4 calcium (AID 434942).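 Also: potency of inhibitors blocking the TRPC4 calcium response.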 Type of assay: functional.

Assay [12] deals with Voltage-gated inwardly rectifying potassium channel KCNH2 (Homo sapiens, UniProt Q12809). Kind of assay: hERG protection from proarrhythmic block, potency, dose response, cell-based, thallium flux (AID 2121). It counts as ADME.
Voltage-gated inwardly rectifying potassium channel KCNH2, sequence (Q12809 whole entry): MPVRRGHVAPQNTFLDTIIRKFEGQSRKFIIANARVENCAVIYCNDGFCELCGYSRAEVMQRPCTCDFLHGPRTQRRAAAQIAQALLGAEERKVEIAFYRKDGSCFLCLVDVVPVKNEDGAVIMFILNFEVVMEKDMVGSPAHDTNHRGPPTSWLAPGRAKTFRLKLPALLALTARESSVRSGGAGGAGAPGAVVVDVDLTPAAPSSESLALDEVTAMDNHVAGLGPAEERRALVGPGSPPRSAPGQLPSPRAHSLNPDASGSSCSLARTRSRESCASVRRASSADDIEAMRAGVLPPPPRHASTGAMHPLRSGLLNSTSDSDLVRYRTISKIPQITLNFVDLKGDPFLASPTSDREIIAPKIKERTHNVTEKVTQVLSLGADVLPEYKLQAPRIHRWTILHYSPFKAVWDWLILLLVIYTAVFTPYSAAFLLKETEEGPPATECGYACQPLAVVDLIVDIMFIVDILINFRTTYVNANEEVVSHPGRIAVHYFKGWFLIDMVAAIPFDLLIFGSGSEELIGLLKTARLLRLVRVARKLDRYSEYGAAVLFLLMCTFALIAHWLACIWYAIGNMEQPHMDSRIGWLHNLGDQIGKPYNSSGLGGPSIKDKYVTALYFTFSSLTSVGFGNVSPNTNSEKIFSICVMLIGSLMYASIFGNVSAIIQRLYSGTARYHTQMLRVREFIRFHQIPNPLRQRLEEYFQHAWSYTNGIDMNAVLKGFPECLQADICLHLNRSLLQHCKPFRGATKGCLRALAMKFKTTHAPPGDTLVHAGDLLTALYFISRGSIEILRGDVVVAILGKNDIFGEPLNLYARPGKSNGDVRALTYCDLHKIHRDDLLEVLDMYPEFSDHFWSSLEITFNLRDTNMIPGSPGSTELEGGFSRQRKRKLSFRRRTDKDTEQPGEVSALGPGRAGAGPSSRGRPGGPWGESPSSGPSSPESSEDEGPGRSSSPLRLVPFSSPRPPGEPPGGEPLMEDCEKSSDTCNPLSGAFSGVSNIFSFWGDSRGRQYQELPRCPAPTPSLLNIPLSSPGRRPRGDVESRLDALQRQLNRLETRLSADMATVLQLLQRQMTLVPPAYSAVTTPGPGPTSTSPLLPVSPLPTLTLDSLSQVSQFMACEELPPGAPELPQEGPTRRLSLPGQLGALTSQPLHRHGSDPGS
A short description of assay [13]: HepG2 cell cytotoxicity, dose response, cytotoxicity control, ATP luminescence, cherry-pick, activator set 2 (AID 1053143). It counts as functional, cell-based.
The nature of assay [14]: inhibitors of intracellular T. cruzi replication, confirmation, NIH3T3 host cells, beta-gal luminescence (AID 2044).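 Also: intracellular parasites grown in NIH/3T3 mouse fibroblasts as host cells; luminescent beta-galactosidase reporter signal from transgenic T. cruzi replicating inside host cells; inhibitors lower the luminescence signal.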 Type of assay: functional, cell-based.
Assay [15] can be described thus: HeLa cell cytotoxicity, dose response, cytotoxicity control, CellTiter-Glo luminescence, dry powder, set 2 (AID 720593). Type of assay: functional, cell-based.
The nature of assay [16]: cells. It counts as functional, cell-based.
A short description of assay [17]: cytotoxicity toward NIH3T3 fibroblasts, dose response, counter-screen, cell-based, ATP luminescence, mouse fibroblasts (AID 2010).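 Also: cells exposed to compound for about 90 hours before reading.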 Type of assay: functional.
Assay [18] can be described thus: HEK293T cell cytotoxicity, dose response, cytotoxicity control, CellTiter-Glo luminescence, dry powder, set 2 (AID 720595). It counts as functional, cell-based. Particulars: HEK293.
Assay [19] is described as follows: cells. It counts as functional, cell-based. This is another data set of the same source.

Several values for one entry are separate records, joined by “and”; a condition that tells them apart may be missing. Equal entries are not always repeated. Activity calls are given as the source filed them.

`CC(C)(C)OC(=O)N1CC(O)CC1C(=O)OCC(=O)c1ccc(Cl)cc1` (stereo not given): the IC50 in [1] is listed as > 100 µM (not active).

`CCc1ccc(Cn2nnc(C(=O)Nc3ccc(OC)cc3OC)c2N)cc1`: the IC50 in [2] and in assay [3] was > 43.8 µM (not active) in each case.

As to `Cc1ccc(Nc2nc(N)nc(CCl)n2)cc1`, in assay [4], the IC50 was 1.75 µM (active).

In the case of `COc1ccc(Nc2c([N+](=O)[O-])ccc3c2=NC2(CCCCC2)N=3)cc1`, the IC50 on Nonstructural protein 1 was 11.1 µM (active); in [5], > 50 µM (not active).

With `CCOC(=O)CN(C(=O)CSc1nnc(COc2ccc(OC)cc2)n1C)c1ccccc1`, in [6], the EC50 is recorded as > 50 µM (not active).

Consider `N=C(NOC(=O)c1ccc(Cl)cc1Cl)c1ccccc1`, for which the EC50 in [7] was 1.06 µM (active); in assay [8], 6.01 µM (active); in “cells [9]” it was > 67.5 µM (inactive); in [10], > 67.5 µM (inactive).

For `O=C(O)c1ccc(Cl)cc1Nc1nc2cc(Cl)ccc2o1`, the EC50 is 5.31 µM (active) in [11]; 11.3 µM (active) and 12 µM (active) in assay [12].

For the compound `CCc1cc2c(O)nc(-c3ccccn3)nc2s1`, the AC50 in assay [13] is 14.2 µM (active); in assay [15] it was 24.1 µM (active); in assay [18], 34.5 µM (active). Besides, the EC50 in assay [14] is 1.38 µM (active); in the assay “cells [16]” it was > 350 µM (not active); in assay [17], 2.45 µM (active); in the assay “cells [19]”, 28.8 µM (active).
